Measured values as given in ChEMBL document CHEMBL1151577, “The inhibition of C5a receptor binding by analogs of L-156,602, a cyclic hexadepsipeptide antibiotic” (Bioorg Med Chem Lett, 1992).
≈ marks a conversion by molar mass, not a printed value.

What was measured:
[1] = target: T1, C5a anaphylatoxin chemotactic receptor 1 (Homo sapiens) (UniProt P21730); assay: Nonspecific degranulation of polymorho neutrophils as measured by myeloperoxidase (MPO) release in a whole functional cell assay
T1 sequence (whole entry): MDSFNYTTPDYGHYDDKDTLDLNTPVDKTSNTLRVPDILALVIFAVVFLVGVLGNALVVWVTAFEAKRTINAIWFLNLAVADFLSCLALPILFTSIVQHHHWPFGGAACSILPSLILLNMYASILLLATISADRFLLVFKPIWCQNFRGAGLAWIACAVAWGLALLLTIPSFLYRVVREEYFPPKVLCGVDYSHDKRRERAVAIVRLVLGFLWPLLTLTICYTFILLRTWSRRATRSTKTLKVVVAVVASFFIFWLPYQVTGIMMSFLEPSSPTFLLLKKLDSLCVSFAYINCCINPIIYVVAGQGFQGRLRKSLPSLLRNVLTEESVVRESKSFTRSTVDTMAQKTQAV

[2] = target: T1, C5a anaphylatoxin chemotactic receptor 1 (Homo sapiens); assay: Inhibition of radiolabeled C5a binding to its membrane bound C5a anaphylatoxin chemotactic receptor
[3] = target: T2, C5a anaphylatoxin chemotactic receptor 1 (Homo sapiens, UniProt P21730); assay: Inhibitory activity against radiolabeled C5a receptor on neutrophil membranes expressing C5a anaphylatoxin chemotactic receptor
T2 sequence (P21730 whole entry): T1 sequence (whole entry)

[4] = target: T2, C5a anaphylatoxin chemotactic receptor 1; assay: Inhibitory activity for C5a anaphylatoxin chemotactic receptor binding using radiolabeled C5a receptor on neutrophil membranes (~2.0 uM)
[5] = species: Homo sapiens; assay: Degranulation of polymorho neutrophils as measured by myeloperoxidase (MPO) release in a whole functional cell assay
[6] = target: T2, C5a anaphylatoxin chemotactic receptor 1; assay: Inhibitory activity against purified binding C5a anaphylatoxin chemotactic receptor
[7] = target: T1, C5a anaphylatoxin chemotactic receptor 1 (Homo sapiens); assay: Compound was evaluated for inhibition of radiolabeled C5a binding to its membrane C5a anaphylatoxin chemotactic receptor

Compound | Concentration causing nonspecific degranulation (MPO release) [1] [µg/mL] | Activity [2] [µg/mL] | also measured
CC[C@H](C)C[C@H]1CC[C@](O)([C@](C)(O)C(=O)N[C@@H]2C(=O)N3NCCC[C@@H]3C(=O)N(OCc3ccccc3)[C@@H](C)C(=O)NCC(=O)N3NCCC[C@H]3C(=O)N[C@H](C)C(=O)O[C@H]2C(C)C)O[C@@H]1C | 18 | > 100 | –
CC[C@H](C)C[C@H]1CC[C@](O)([C@](C)(O)C(=O)N[C@@H]2C(=O)N[C@H](CCCNC(C)=O)C(=O)N(O)[C@@H](C)C(=O)NCC(=O)N3NCCC[C@H]3C(=O)N(O)[C@H](C)C(=O)O[C@H]2C(C)C)O[C@@H]1C | > 50 | > 100 | –
CC[C@H](C)C[C@H]1CC[C@](O)([C@](C)(O)C(=O)N[C@@H]2C(=O)N3NCCC[C@@H]3C(=O)N(CC(=O)OC(C)(C)C)[C@@H](C)C(=O)NCC(=O)N3NCCC[C@H]3C(=O)N(O)[C@H](C)C(=O)O[C@H]2C(C)C)O[C@@H]1C | > 50 | 100 | –
CC(O)C(=O)N[C@@H]1C(=O)N2NCCC[C@@H]2C(=O)N(O)[C@@H](C)C(=O)NCC(=O)N2NCCC[C@H]2C(=O)N(O)[C@H](C)C(=O)O[C@H]1C(C)C (stereo in doubt; 26) | > 20 | > 100 | –
CC[C@H](C)C[C@H]1CC[C@](O)([C@](C)(O)C(=O)N[C@@H]2C(=O)N3CCCC[C@@H]3C(=O)N(O)[C@@H](C)C(=O)NCC(=O)N3NCCC[C@H]3C(=O)N(O)[C@H](C)C(=O)O[C@H]2C(C)C)O[C@@H]1C | 20 | 75 | –
CC[C@H](C)C[C@H]1CC[C@](O)([C@](C)(O)C(=O)N[C@@H]2C(=O)N3NCCC[C@@H]3C(=O)N(O)[C@@H](C)C(=O)NCC(=O)N3NCCC[C@H]3C(=O)N(OC)[C@H](C)C(=O)O[C@H]2C(C)C)O[C@@H]1C | 2 | 2 | –
CC[C@H](C)C[C@H]1CC[C@](O)([C@](C)(O)C(=O)N[C@@H]2C(=O)N3NCCC[C@@H]3C(=O)N(O)[C@@H](C)C(=O)N[C@H](C)C(=O)N3NCCC[C@H]3C(=O)N(O)[C@H](C)C(=O)O[C@H]2C(C)C)O[C@@H]1C | > 100 | > 100 | –
CC(=O)C(=O)N[C@@H]1C(=O)N2NCCC[C@@H]2C(=O)N(O)[C@@H](C)C(=O)NCC(=O)N2NCCC[C@H]2C(=O)N(O)[C@H](C)C(=O)O[C@H]1C(C)C | > 13 | > 100 | –
CC[C@@H](C)CC1CCC(O)([C@](C)(O)C(=O)NC2C(=O)N3NCCC[C@@H]3C(=O)N(O)[C@@H](C)C(=O)NCCC(=O)N3NCCC[C@H]3C(=O)N(O)[C@H](C)C(=O)O[C@H]2C(C)C)OC1C (stereo not given in full) | > 50 | > 100 | –
CC[C@H](C)C[C@H]1CC[C@](O)([C@](C)(O)C(=O)N[C@@H]2C(=O)N3NCCC[C@@H]3C(=O)N(O)[C@@H](C)C(=O)NCC(=O)N3NCCC[C@H]3C(=O)N(C)[C@H](C)C(=O)O[C@H]2C(C)C)O[C@@H]1C | 4 | 5 | –
CC(C)[C@@H]1OC(=O)[C@@H](C)N(O)C(=O)[C@@H]2CCCNN2C(=O)CNC(=O)[C@H](C)N(O)C(=O)[C@H]2CCCNN2C(=O)[C@H]1NC(=O)[C@@](C)(O)CCCc1ccccc1 | 9 | > 100 | –
CCC(C)C[C@H]1CC[C@H]([C@](C)(O)C(=O)N[C@@H]2C(=O)N3NCCC[C@@H]3C(=O)N(O)[C@@H](C)C(=O)NCC(=O)N3NCCC[C@H]3C(=O)N(O)[C@H](C)C(=O)O[C@H]2C(C)C)O[C@@H]1C (single isomer, unassigned) | 0.3 | 3.6 | –
CC[C@H](C)C[C@H]1CC[C@](O)([C@](C)(O)C(=O)N[C@@H]2C(=O)N3NCCC[C@@H]3C(=O)N(C(C)=O)[C@@H](C)C(=O)NCC(=O)N3NCCC[C@H]3C(=O)N(O)[C@H](C)C(=O)O[C@H]2C(C)C)O[C@@H]1C | 0.3 | 4 | –
CC[C@H](C)C[C@H]1CC[C@](O)([C@](C)(O)C(=O)N[C@@H]2C(=O)N3NCCC[C@@H]3C(=O)N(OC)[C@@H](C)C(=O)NCC(=O)N3NCCC[C@H]3C(=O)N(OC)[C@H](C)C(=O)O[C@H]2C(C)C)O[C@@H]1C | 3 | 6 | –
CCC(C)C[C@H]1CC[C@](O)([C@](C)(O)C(=O)N[C@@H]2C(=O)N3NCCC[C@@H]3C(=O)N(O)[C@@H](C)C(=O)NCC(=O)N3NCCC[C@H]3C(=O)N[C@H](C)C(=O)OC2C)O[C@@H]1C (single isomer, unassigned) | 1 | 2 | –
CC[C@H](C)C[C@H]1CC[C@](O)([C@](C)(O)C(=O)N[C@@H]2C(=O)N3NCCC[C@@H]3C(=O)N(O)[C@@H](C)C(=O)NCC(=O)N3NCCC[C@H]3C(=O)N[C@H](C)C(=O)O[C@H]2C(C)C)O[C@@H]1C | 7 | 21 | –
CCC(C)C[C@H]1CC[C@](O)([C@](C)(O)C(=O)N[C@@H]2C(=O)N3NCCC[C@@H]3C(=O)N[C@@H](C)C(=O)NCC(=O)N3NCCC[C@H]3C(=O)N[C@H](C)C(=O)O[C@H]2C(C)C)O[C@@H]1C (single isomer, unassigned) | > 50 | 40 | –
CC[C@H](C)C[C@H]1CC[C@](O)([C@](C)(O)C(=O)N[C@@H]2C(=O)N3NCCC[C@@H]3C(=O)N(OC)[C@@H](C)C(=O)NCC(=O)N3NCCC[C@H]3C(=O)N(C)[C@H](C)C(=O)O[C@H]2C(C)C)O[C@@H]1C | 20 | 7 | –
CC[C@H](C)C[C@H]1CC[C@](O)([C@](C)(O)C(=O)N[C@@H]2C(=O)N[C@H](CCCN)C(=O)N(O)[C@@H](C)C(=O)NCC(=O)N3NCCC[C@H]3C(=O)N(O)[C@H](C)C(=O)O[C@H]2C(C)C)O[C@@H]1C | > 200 | 60 | –
CC(C)[C@@H]1OC(=O)[C@@H](C)N(O)C(=O)[C@@H]2CCCNN2C(=O)CNC(=O)[C@H](C)N(O)C(=O)[C@H]2CCCNN2C(=O)[C@H]1NC(=O)[C@](C)(O)CCCc1ccccc1 | 12 | 100 | –
CCC(C)C[C@H]1CC[C@](O)([C@](C)(O)C(=O)N[C@H]2COC(=O)[C@@H](C)NC(=O)[C@@H]3CCCNN3C(=O)CNC(=O)[C@H](C)N(O)C(=O)[C@H]3CCCNN3C2=O)O[C@@H]1C (single isomer, unassigned) | 26 | > 100 | –
CC[C@H](C)C[C@H]1CC[C@](O)([C@](C)(O)C(=O)N[C@@H]2C(=O)N3NCCC[C@@H]3C(=O)N[C@@H](C)C(=O)NCC(=O)N3NCCC[C@H]3C(=O)N(O)[C@H](C)C(=O)O[C@H]2C(C)C)O[C@@H]1C | – | > 100 | –
CC[C@H](C)C[C@H]1CC[C@](O)([C@](C)(O)C(=O)N[C@@H]2C(=O)N3NCCC[C@@H]3C(=O)N(O)[C@@H](C)C(=O)NCC(=O)N3NCCC[C@H]3C(=O)N(O)[C@H](C)C(=O)O[C@H]2C(C)C)O[C@@H]1C | 0.27 | – | IC50 [3]: 5.95 µM; IC50 [4]: 2.02 µM; EC50 [5]: 0.28 µg/mL (≈ 0.333 µM); IC50 [6]: 5.95 µM; Activity [7]: 1.8 µg/mL
CC[C@H](C)C[C@H]1CC[C@](O)([C@](C)(O)C(=O)N[C@@H]2C(=O)N3NCCC[C@@H]3C(=O)N(OC)[C@@H](C)C(=O)NCC(=O)N3NCCC[C@H]3C(=O)N(O)[C@H](C)C(=O)O[C@H]2C(C)C)O[C@@H]1C | 0.3 | 5 | –
CC[C@H](C)C[C@H]1CC[C@](O)([C@](C)(O)C(=O)N[C@@H]2C(=O)N3[C@H](CCCN3C)C(=O)N(O)[C@@H](C)C(=O)NCC(=O)N3[C@@H](CCCN3C)C(=O)N(O)[C@H](C)C(=O)O[C@H]2C(C)C)O[C@@H]1C | 10 | 11 | –
CC(O)C(=O)N[C@@H]1C(=O)N2NCCC[C@@H]2C(=O)N(O)[C@@H](C)C(=O)NCC(=O)N2NCCC[C@H]2C(=O)N(O)[C@H](C)C(=O)O[C@H]1C(C)C (stereo in doubt; 25) | 23 | 23 | –
CC[C@H](C)C[C@H]1CC[C@](O)([C@](C)(O)C(=O)N[C@@H]2C(=O)N3NCCC[C@@H]3C(=O)N(C)[C@@H](C)C(=O)NCC(=O)N3NCCC[C@H]3C(=O)N(O)[C@H](C)C(=O)O[C@H]2C(C)C)O[C@@H]1C | 2 | 5 | –
CC[C@H](C)C[C@H]1CC[C@](O)([C@](C)(O)C(=O)N[C@@H]2C(=O)N3NCCC[C@@H]3C(=O)N(O)[C@@H](C)C(=O)N[C@@H](C)C(=O)N3NCCC[C@H]3C(=O)N(O)[C@H](C)C(=O)O[C@H]2C(C)C)O[C@@H]1C | – | 60 | –
CC[C@H](C)C[C@H]1CC[C@](O)([C@](C)(O)C(=O)N[C@@H]2C(=O)N3NCCC[C@@H]3C(=O)N(OCc3ccccc3)[C@@H](C)C(=O)NCC(=O)N3NCCC[C@H]3C(=O)N(O)[C@H](C)C(=O)O[C@H]2C(C)C)O[C@@H]1C | 0.6 | 4 | –
